Residues, ends and D or L forms follow the SMILES beside them.
What was measured:
HP1BP3 = HP1BP3 (Homo sapiens, UniProt Q5SSJ5); experiment: nHU-MS peptide bait, prey HP1BP3
RFT1 = RFT1 (Homo sapiens, UniProt Q96AA3); experiment: nHU-MS peptide bait, prey RFT1
DDX18 = DDX18 (Homo sapiens, UniProt Q9NVP1); experiment: nHU-MS peptide bait, prey DDX18
HA-MBP-POLE2 = molecular target: T1, HA-MBP-POLE2 (Homo sapiens, UniProt P56282); experiment: Titration nHU, Western blot, HA-MBP-POLE2 in 293T cell extract; format: binding; conditions: MBP-tagged POLE2, depending on the experimental setup, authors' rebuttal; read-out: dissociation constants
T1 construct: POLE2: UniProt ID P56282, residues 1-527; expressed in transfected cells; host or cells: HEK293T
From the text: (§1) To identify the partners of NPF motifs, we used the native holdup (nHU) assay that was recently developed by our team (Fig. 1B). The holdup approach has been extensively used to determine equilibrium dissociation constants of transient interactions mediated by PDZ and SH3 domains, 14-3-3, and human papilloma virus E6 proteins, and even nucleic acid-protein interactions[7],[30]–[35]. In the nHU experiments, a purified bait molecule, or a control compound, is immobilized on a resin at high concentration (typically 10 μM, or higher) and these resin stocks are subsequently mixed with dilute cell extracts. […] This liquid phase contains the unbound prey molecules at near binding equilibrium that can be quantified using selective and quantitative analytical approaches, such as mass spectrometry. Therefore, proteins that interact with the bait molecule will appear to be depleted in the solvent phase and by measuring its relative concentration compared to the control nHU experiment, the degree of binding (θ) can be determined that can be converted to apparent steady-state dissociation constants, according to:1 θ=1−Ifree/Itot=Cbait/Cbait+Kapp where Itot and Ifree are the measured total and bait-depleted equilibrium mass spectrometry total ion intensities of prey proteins, Cbait is the bait molecule concentration and Kapp is the apparent dissociation constant. […]

GTPBP4 = GTPBP4 (Homo sapiens, UniProt Q9BZE4); experiment: nHU-MS peptide bait, prey GTPBP4
CD2AP = CD2AP (Homo sapiens, UniProt Q9Y5K6); experiment: nHU-MS peptide bait, prey CD2AP
HA-POLE2 = molecular target: T2, HA-POLE2 (Homo sapiens, UniProt P56282); experiment: Titration nHU, Western blot, HA-POLE2 in 293T cell extract; format: binding; conditions: HA-tagged POLE2, range over assays, authors' rebuttal; read-out: dissociation constant
T2 construct: POLE2: UniProt ID P56282, residues 1-527; expressed in transfected cells; host or cells: HEK293T
From the text: as §1

EPS15 = molecular target: T3, EPS15 (Homo sapiens, UniProt P42566); experiment: Titration nHU, Western blot, endogenous EPS15 in Jurkat extract; format: binding; conditions: source data of Fig 5, titration nHU, unit inferred
T3 construct: endogenous in cells; host or cells: Jurkat E6.1
T3 sequence (P42566 1-896): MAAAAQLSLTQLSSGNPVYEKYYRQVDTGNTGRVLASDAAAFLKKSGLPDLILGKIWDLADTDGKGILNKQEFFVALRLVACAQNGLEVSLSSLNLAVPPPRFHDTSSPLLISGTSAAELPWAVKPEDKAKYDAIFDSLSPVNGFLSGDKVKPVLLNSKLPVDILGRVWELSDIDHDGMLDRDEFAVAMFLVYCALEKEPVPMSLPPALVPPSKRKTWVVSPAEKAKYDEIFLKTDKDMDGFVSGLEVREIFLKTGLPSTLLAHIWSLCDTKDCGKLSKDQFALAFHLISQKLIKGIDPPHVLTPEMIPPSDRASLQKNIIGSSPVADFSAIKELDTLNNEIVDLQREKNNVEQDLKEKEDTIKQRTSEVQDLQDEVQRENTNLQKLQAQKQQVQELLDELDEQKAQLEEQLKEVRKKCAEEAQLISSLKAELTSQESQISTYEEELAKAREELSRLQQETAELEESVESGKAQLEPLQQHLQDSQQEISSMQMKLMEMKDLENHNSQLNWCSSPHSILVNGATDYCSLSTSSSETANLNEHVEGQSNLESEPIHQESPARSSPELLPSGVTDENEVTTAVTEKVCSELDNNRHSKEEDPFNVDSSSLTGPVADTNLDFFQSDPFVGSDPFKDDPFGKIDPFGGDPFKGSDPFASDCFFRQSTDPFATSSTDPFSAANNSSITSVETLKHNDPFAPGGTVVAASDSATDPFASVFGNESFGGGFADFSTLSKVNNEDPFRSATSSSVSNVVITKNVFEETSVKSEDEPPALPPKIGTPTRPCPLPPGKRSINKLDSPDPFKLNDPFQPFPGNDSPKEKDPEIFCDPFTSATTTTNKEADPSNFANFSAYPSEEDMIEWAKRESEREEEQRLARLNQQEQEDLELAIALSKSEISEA
From the text: To identify the partners of NPF motifs, we used the native holdup (nHU) assay that was recently developed by our team (Fig. 1B). The holdup approach has been extensively used to determine equilibrium dissociation constants of transient interactions mediated by PDZ and SH3 domains, 14-3-3, and human papilloma virus E6 proteins, and even nucleic acid-protein interactions[7],[30]–[35]. In the nHU experiments, a purified bait molecule, or a control compound, is immobilized on a resin at high concentration (typically 10 μM, or higher) and these resin stocks are subsequently mixed with dilute cell extracts. After a relatively long incubation, i.e., 2 h at 4 °C, the liquid phase is separated by centrifugation. This liquid phase contains the unbound prey molecules at near binding equilibrium that can be quantified using selective and quantitative analytical approaches, such as mass spectrometry. Therefore, proteins that interact with the bait molecule will appear to be depleted in the solvent phase and by measuring its relative concentration compared to the control nHU experiment, the degree of binding (θ) can be determined that can be converted to apparent steady-state dissociation constants, according to:1 θ=1−Ifree/Itot=Cbait/Cbait+Kapp where Itot and Ifree are the measured total and bait-depleted equilibrium mass spectrometry total ion intensities of prey proteins, Cbait is the bait molecule concentration and Kapp is the apparent dissociation constant.
Jurkat E6.1 cells (ECACC #88042803, RRID: CVCL_0367) were grown in RPMI (Gibco) medium completed with 10% FBS (Gibco BRL) and 40 μg/ml gentamicin (Gibco/Life Technology). To prepare total cell extracts, Jurkat cells were seeded onto T-175 flasks and grew until 3 × 10^6 cells/ml confluency. Cells were collected by 1000 g x 5 min centrifugation, washed with PBS and then lysed in ice-cold lysis buffer (Hepes-KOH pH 7.5 50 mM, NaCl 150 mM, Triton X-100 1%, cOmplete EDTA-free protease inhibitor cocktail 5x, TCEP 5 mM, glycerol 10%).
Cell suspensions were sonicated 4×20 sec with 1 sec long pulse on ice, then incubated rotating at 4 °C for 30 min. The lysates were centrifuged at 12,000 rpm 4 °C for 20 min and supernatant was kept. Total protein concentration was measured by standard Bradford method (Bio-Rad Protein Assay Dye Reagent #5000006) using a BSA calibration curve (MP Biomedicals #160069, diluted in lysis buffer) on a Bio-Rad SmartSpec 3000 spectrophotometer instrument.
Titration holdup experiments were carried out as described above using 25 μl saturated resins prepared. Briefly, we mixed control, or bait-saturated resins at various proportions by keeping the total resin amount and resin-analyte ratio constant during the experiment (for 25 μl we used 100 μl cell extract as analyte). In titration experiments with protein baits, bait concentration was determined as described above for the saturated resin stocks. Experiments were carried out at 4 °C for 2 h and recovered supernatants were subjected to western blot or dot blot analysis.
For Western blot, samples were mixed with 4x Laemmli Sample Buffer in 3:1 ratio. Equal amounts of samples were loaded on 6-10% acrylamide-gels (generally 16 μg). Transfer was done into PVDF membranes using a Trans-Blot Turbo Transfer System and Trans-Blot Turbo RTA Transfer Kit (BioRad, #1704275). For Dot blot, nHU samples were directly loaded on Nitrocellulose membranes using 48 Sample vacuum manifold (Cleaver Scientific) following the manufacturer’s recommendations. […]

CD2AP, sequence (Q9Y5K6 whole entry): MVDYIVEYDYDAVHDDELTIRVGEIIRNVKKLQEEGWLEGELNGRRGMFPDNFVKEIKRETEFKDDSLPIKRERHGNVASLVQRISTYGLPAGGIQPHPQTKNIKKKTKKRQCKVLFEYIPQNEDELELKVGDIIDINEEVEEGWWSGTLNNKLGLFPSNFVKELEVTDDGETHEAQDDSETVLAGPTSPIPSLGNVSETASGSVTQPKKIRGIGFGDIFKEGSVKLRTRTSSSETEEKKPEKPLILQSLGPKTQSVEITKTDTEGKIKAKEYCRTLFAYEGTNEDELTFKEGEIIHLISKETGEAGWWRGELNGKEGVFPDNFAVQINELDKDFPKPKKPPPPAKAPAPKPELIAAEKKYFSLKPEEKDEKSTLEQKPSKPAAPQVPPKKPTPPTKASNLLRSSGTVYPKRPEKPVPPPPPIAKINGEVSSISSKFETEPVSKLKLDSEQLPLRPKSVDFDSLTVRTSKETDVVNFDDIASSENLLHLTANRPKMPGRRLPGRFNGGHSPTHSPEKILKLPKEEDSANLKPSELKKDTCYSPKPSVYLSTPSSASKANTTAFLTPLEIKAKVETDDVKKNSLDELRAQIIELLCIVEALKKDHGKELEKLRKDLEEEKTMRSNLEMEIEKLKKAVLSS
RFT1, sequence (Q96AA3 whole entry): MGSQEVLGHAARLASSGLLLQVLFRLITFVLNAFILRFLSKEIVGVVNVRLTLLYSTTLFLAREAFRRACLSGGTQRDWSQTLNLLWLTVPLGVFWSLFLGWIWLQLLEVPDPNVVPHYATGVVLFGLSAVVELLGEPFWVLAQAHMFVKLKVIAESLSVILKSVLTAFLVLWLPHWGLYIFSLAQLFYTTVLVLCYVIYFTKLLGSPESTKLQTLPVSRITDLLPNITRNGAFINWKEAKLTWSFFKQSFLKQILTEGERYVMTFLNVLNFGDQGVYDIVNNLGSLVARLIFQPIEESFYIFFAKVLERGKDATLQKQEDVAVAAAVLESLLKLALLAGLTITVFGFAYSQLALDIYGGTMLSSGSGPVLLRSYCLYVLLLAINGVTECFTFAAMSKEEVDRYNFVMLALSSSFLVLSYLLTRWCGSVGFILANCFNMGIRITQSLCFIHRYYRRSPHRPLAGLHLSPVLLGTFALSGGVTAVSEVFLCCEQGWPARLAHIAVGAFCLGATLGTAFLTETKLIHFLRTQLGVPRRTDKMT
DDX18, sequence (Q9NVP1 whole entry): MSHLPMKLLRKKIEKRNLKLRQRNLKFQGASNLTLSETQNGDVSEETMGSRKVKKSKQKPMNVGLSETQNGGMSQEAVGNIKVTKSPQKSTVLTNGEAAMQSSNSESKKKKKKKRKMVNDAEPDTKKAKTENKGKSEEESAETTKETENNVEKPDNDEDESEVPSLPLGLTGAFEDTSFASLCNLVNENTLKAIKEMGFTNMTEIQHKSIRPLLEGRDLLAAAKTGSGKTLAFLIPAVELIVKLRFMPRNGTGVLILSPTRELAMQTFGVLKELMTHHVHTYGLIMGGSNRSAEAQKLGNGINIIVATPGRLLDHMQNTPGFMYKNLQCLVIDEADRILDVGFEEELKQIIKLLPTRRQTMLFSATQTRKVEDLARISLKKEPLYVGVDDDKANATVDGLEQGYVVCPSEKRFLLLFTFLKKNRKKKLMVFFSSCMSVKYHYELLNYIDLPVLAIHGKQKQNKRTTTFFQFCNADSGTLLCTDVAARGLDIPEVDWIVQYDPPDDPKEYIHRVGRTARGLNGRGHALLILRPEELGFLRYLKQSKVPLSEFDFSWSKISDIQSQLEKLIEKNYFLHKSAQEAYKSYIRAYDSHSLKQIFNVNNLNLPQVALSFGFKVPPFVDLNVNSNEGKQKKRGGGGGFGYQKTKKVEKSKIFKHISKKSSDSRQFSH
HP1BP3, sequence (Q5SSJ5 whole entry): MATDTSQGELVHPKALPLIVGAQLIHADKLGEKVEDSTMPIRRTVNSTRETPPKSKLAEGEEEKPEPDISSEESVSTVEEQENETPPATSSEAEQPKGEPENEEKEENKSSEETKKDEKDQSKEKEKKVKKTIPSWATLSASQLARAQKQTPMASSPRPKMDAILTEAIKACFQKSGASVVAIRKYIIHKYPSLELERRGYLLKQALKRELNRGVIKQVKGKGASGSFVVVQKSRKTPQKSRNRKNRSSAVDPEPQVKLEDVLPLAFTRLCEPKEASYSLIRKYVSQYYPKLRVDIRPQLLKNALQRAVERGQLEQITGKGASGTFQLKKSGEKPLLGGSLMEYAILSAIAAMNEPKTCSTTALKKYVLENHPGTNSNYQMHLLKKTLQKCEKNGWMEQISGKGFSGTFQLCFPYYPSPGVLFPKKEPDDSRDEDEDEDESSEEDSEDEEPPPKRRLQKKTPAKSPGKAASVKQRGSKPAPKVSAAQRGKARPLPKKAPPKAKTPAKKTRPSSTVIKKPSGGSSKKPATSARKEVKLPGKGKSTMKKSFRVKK
T1 sequence (P56282 whole entry, the tested form may be a part): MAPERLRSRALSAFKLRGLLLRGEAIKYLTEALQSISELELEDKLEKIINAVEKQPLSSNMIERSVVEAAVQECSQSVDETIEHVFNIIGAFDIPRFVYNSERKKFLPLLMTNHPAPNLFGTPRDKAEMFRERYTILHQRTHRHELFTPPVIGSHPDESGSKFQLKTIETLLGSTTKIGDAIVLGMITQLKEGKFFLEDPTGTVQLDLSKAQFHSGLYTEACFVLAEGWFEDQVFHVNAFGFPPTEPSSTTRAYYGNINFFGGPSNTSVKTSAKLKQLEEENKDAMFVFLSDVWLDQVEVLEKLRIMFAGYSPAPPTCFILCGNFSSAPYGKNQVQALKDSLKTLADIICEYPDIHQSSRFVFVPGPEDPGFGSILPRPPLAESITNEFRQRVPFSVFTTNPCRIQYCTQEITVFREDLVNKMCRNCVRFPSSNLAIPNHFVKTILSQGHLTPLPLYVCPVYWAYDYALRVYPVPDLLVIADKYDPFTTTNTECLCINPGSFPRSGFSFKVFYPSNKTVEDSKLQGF
T2 sequence (P56282 whole entry, the tested form may be a part): as above

CC(C)C[C@H](NC(=O)[C@H](CCCNC(=N)N)NC(=O)[C@H](C)NC(=O)[C@H](Cc1ccccc1)NC(=O)[C@@H]1CCCN1C(=O)[C@H](CC(N)=O)NC(=O)[C@H](CCCNC(=N)N)NC(=O)[C@H](CCCNC(=N)N)NC(=O)[C@H](C)NC(=O)[C@H](C)NC(=O)[C@H](C)NC(=O)[C@@H]1CCCN1C(=O)CN)C(=O)N[C@@H](CC(=O)O)C(=O)N[C@@H](CC(N)=O)C(=O)N[C@@H](CCCNC(=N)N)C(=O)N1CCC[C@H]1C(=O)N[C@@H](CCCNC(=N)N)C(N)=O [DONSON_71-88] (H-GPAAARRNPFARLDNRPR-NH2)
Kd (HP1BP3): 31.2 µM | BI (HP1BP3; prey HP1BP3, MS2_Varjosalo): 0.2425 | Kd (RFT1): 24.2 µM | BI (RFT1; prey RFT1, MS7_Varjosalo): 0.292 | Kd (DDX18): 29.5 µM | BI (DDX18; prey DDX18, MS2_Varjosalo): 0.2529 | Kd (HA-MBP-POLE2): 1 to 10 µM | Kd (GTPBP4): 29.7 µM | BI (GTPBP4; prey GTPBP4, MS2_Varjosalo): 0.252 | Kd (CD2AP): 18.8 µM | BI (CD2AP; prey CD2AP, MS7_Varjosalo): 0.3476 | Kd (HA-POLE2): 0.3 to 0.5 µM | Kd (EPS15): > 60 µM
